Assays:
M4 muscarinic receptor = target: T1, M4 muscarinic receptor (Homo sapiens, UniProt P08173); test: Functional mobilization of intracellular calcium (FLIPR) in M4-CHO cells; format: cell-based; conditions: Table 5; for Emax: 100% efficacy is the maximum response obtained with the Carbachol control; for EC50: CHO cells expressing M4, calcium mobilization
T1 construct: expressed in transfected cells; host or cells: CHO (M4-CHO)
T1 sequence (P08173 1-479): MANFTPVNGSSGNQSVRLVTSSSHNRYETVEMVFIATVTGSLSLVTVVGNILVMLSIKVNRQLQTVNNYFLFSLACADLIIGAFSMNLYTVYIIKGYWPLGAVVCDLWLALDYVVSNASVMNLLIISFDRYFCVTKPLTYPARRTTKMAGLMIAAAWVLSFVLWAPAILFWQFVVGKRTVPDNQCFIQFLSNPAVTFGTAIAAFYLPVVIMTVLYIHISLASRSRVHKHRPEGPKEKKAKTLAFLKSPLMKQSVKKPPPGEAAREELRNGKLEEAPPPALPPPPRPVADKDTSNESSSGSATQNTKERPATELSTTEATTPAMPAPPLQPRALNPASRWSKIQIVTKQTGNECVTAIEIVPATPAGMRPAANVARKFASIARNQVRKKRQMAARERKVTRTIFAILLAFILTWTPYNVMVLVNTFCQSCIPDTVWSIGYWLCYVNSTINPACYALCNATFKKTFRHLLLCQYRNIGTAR
How it was run: (§1)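 Steps: seed M1- or M4-CHO cells 18-24 hrs ahead; load calcium dye with 1 mM probenecid; add test compound (0.5% DMSO final), either alone for agonism or 15 min before EC80 carbachol for inhibition; record FLIPR fluorescence for 60 sec.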

M1 muscarinic receptor = target: T2, M1 muscarinic receptor (Homo sapiens, UniProt P11229); test: Functional mobilization of intracellular calcium (FLIPR) in M1-CHO cells; format: cell-based; conditions: Table 5; for Emax: 100% efficacy is the maximum response obtained with the Carbachol control; for EC50: CHO cells expressing M1, calcium mobilization
T2 construct: expressed in transfected cells; host or cells: CHO (M1-CHO)
T2 sequence (P11229 1-460): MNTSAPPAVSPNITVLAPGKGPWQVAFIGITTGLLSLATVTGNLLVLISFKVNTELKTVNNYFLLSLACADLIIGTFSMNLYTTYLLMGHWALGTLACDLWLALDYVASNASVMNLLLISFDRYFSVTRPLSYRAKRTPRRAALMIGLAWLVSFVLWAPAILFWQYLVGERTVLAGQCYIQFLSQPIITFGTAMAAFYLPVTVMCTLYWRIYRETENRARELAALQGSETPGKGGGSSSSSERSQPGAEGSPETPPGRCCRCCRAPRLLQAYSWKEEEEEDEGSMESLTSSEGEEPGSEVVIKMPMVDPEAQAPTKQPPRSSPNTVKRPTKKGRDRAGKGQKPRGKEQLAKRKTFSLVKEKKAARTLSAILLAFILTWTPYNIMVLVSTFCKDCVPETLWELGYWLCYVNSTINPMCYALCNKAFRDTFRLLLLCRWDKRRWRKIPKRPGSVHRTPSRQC
How it was run: as §1

Row | Structure (SMILES) | Emax (M4 muscarinic receptor) [%] | EC50 (M4 muscarinic receptor) [nM] | Emax (M1 muscarinic receptor) [%] | EC50 (M1 muscarinic receptor) [nM]
1 | CN(C)C(=O)N1CC2(CCN(C3CCN(c4ccccn4)CC3)CC2)c2cc(F)ccc21 [compound 1039] | 25 to 100 | < 2000 | 25 to 100 | 2000 to 10000
2 | CN(C)C(=O)N1CC2(CCN(C3CCN(c4cccnc4)CC3)CC2)c2cc(F)ccc21 [compound 1040] | 25 to 100 | < 2000 | 25 to 100 | < 2000
3 | CN(C)C(=O)N1CC2(CCN(C3CCN(c4ccsc4)CC3)CC2)c2cc(F)ccc21 [compound 1041] | 25 to 100 | 2000 to 10000 | 25 to 100 | 2000 to 10000

Reference: patent US7786141B2 (Vertex Pharmaceuticals Incorporated, priority 2004, dated 2010)
